According to the supplement of paper PMC10307832:

Key:
Assay in all cases: relative viability (nuclei count vs DMSO), 5 days (fraction); higher = more cells survive
MK-2206 + Linsitinib = compound: NC1(c2ccc(-c3nc4ccn5c(=O)[nH]nc5c4cc3-c3ccccc3)cc2)CCC1 [MK-2206] + C[C@]1(O)C[C@@H](c2nc(-c3ccc4ccc(-c5ccccc5)nc4c3)c3c(N)nccn32)C1 [Linsitinib] (partner 1 µM)
How it was run: (§1)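 Relative viability was taken as the ratio of nuclei in treated wells to nuclei in vehicle wells. Lung cancer cell lines in 1536-well plates received compounds by pin tool one day after seeding, either one drug alone or a fixed anchor-drug dose plus five library-drug doses (not always all listed) in √10 steps. Nuclei were counted on 4× images after 5 days of treatment, and values are medians of duplicate plates.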

Pictilisib + Tozasertib = compound: CS(=O)(=O)N1CCN(Cc2cc3nc(-c4cccc5[nH]ncc45)nc(N4CCOCC4)c3s2)CC1 [Pictilisib] + Cc1cc(Nc2cc(N3CCN(C)CC3)nc(Sc3ccc(NC(=O)C4CC4)cc3)n2)n[nH]1 [Tozasertib] (partner 0.1 µM)
How it was run: as §1

Pictilisib + Bortezomib = compound: CS(=O)(=O)N1CCN(Cc2cc3nc(-c4cccc5[nH]ncc45)nc(N4CCOCC4)c3s2)CC1 [Pictilisib] + CC(C)C[C@H](NC(=O)[C@H](Cc1ccccc1)NC(=O)c1cnccn1)B(O)O [Bortezomib] (partner 0.002 µM)
How it was run: as §1

Pictilisib + OSI-027 = compound: CS(=O)(=O)N1CCN(Cc2cc3nc(-c4cccc5[nH]ncc45)nc(N4CCOCC4)c3s2)CC1 [Pictilisib] + COc1cccc2cc(-c3nc([C@H]4CC[C@H](C(=O)O)CC4)n4ncnc(N)c34)[nH]c12 [OSI-027] (partner 0.5 µM)
How it was run: as §1

MK-2206 + Palbociclib = compound: NC1(c2ccc(-c3nc4ccn5c(=O)[nH]nc5c4cc3-c3ccccc3)cc2)CCC1 [MK-2206] + CC(=O)c1c(C)c2cnc(Nc3ccc(N4CCNCC4)cn3)nc2n(C2CCCC2)c1=O [Palbociclib] (partner 0.5 µM)
How it was run: as §1

UMC-11
relative viability (MK-2206 + Linsitinib; first compound 0.01 µM): 1.1
relative viability (MK-2206 + Linsitinib; first compound 0.03162 µM): 1.02
relative viability (MK-2206 + Linsitinib; first compound 0.3162 µM): 1.01
relative viability (MK-2206 + Linsitinib; first compound 1 µM): 1.01
relative viability (Pictilisib + Tozasertib; first compound 0.02 µM): 0.202
relative viability (Pictilisib + Tozasertib; first compound 0.06325 µM): 0.192
relative viability (Pictilisib + Tozasertib; first compound 0.6325 µM): 0.2
relative viability (Pictilisib + Tozasertib; first compound 2 µM): 0.216
relative viability (Pictilisib + Bortezomib; first compound 0.02 µM): 0.828
relative viability (Pictilisib + Bortezomib; first compound 0.06325 µM): 0.902
relative viability (Pictilisib + Bortezomib; first compound 0.6325 µM): 0.78
relative viability (Pictilisib + Bortezomib; first compound 2 µM): 0.768
relative viability (Pictilisib + OSI-027; first compound 0.02 µM): 0.538
relative viability (Pictilisib + OSI-027; first compound 0.06325 µM): 0.526
relative viability (Pictilisib + OSI-027; first compound 0.6325 µM): 0.48
relative viability (Pictilisib + OSI-027; first compound 2 µM): 0.383
relative viability (MK-2206 + Palbociclib; first compound 0.01 µM): 0.318
relative viability (MK-2206 + Palbociclib; first compound 0.03162 µM): 0.359
relative viability (MK-2206 + Palbociclib; first compound 0.3162 µM): 0.288
relative viability (MK-2206 + Palbociclib; first compound 1 µM): 0.317
